# Test results taken from patent US5219884A, “Immunosuppressant” (Taito Co., Ltd., priority 1990, dated 1993).
# Experiments:
# [1] = tested on: interleukin 2 receptor (IL-2R, Tac) expression in mouse allogenic MLC; assay: suppression of induction of IL-2R (Tac) expression in mouse allogenic MLC; type: cell-based
# Method: (§1) Mouse allogenic MLC and PHA-stimulated mouse spleen cells were prepared in the same as in Experimental Example 3.
# (§2) The IL-2R (Tac) induced in mouse allogenic MLC and PHA-stimulated mouse spleen cells was assayed as follows:
# (§3) After culturing the mouse allogenic MLC and the PHA-stimulated mouse spleen cells at 37° C. in an atmosphere of 5% carbon dioxide for 24 hours, the cells were collected by centrifugation (1000 rpm, 5 minutes, 4° C.), and about 10^6 cells were cultured in 10 μl of phosphate buffered saline (PBS), to which 0.02% sodium azide-containing rat anti-mouse IL-2R monoclonal antibody (manufactured by Boehringer Co., 40 μg/ml) had been added, for 30 minutes with ice-cooling. After washing three times with ice-cooled PBS containing 0.02% sodium azide, 50 μl of fluorescein isothiocyanate (FITC)-labeled goat anti-rat immunoglobulin G antibody was added and cultured for 30 minutes with ice-cooling. To the cell pellet after washing three times with ice-cooled 0.02% sodium azide-added PBS was added, a few drops of PBS containing 0.2% sodium azide and 50% glycerin. Prepared specimens on non-fluorescent slide glasses were made and the IL-2R positive cells were counted under a fluorescent microscope to determine the ratio of numbers of IL-2R positive cells in the total numbers of the cells.
# [2] = tested on: interleukin 1 (IL1) response of mouse thymocytes; assay: suppression of interleukin 1 (IL1) response of mouse thymocytes; type: cell-based; settings: PHA + IL1
# Method: The thymus was resected from 7-week-old male C3H/HeN mice, and single cell suspension was prepared using the serum-free RPMI1640 culture medium. After three times washing with the medium, the cells were suspended to a concentration of 1.5×10^7 cells/ml in the RPMI1640 culture medium supplemented with 20% fetal calf serum, 5×10^-5 M 2-mercaptoethanol, 2×10^-3 M L-glutamine, 1×10^-3 M sodium pyruvate, 1 μg/ml of phytohemagglutinin (PHA, Wellcome Co., HA16/17) and 2 units/ml of human ultrapure interleukin 1 (Genzyme Co., GUPi-1). One hundred μl of this cell suspension and 100 μl of the solution containing ISP-I were mixed in each well of the 96-well flat-bottomed microculture plate, cultured at 37° C. in an atmosphere of 5% carbon dioxide for 66 hours, and cultured for further 6 hours after addition of 0.5 μCi/well of ^3 H-thymidine. After termination of the culture, the cells in each well were harvested onto a filter by a multiple cell harvester, and the radioactivity incorporated into the cells was measured by liquid scintillation method using a toluene-base scintillator.
# In the table, SD means standard deviation. The percent suppression (%) was calculated by the following formulation. [formula]
# [3] = tested on: allo-reactive cytotoxic T cells (EL4 target cells); assay: suppression of allo-reactive cytotoxic T cells induced by immunization of mouse with allogenic cells; type: in vivo; settings: 0.1 mg/kg/day i.p., 6 times
# Method: Male BALB/c mice were immunized with spleen cells of C57BL/6 mice (5×10^7 cells/mouse, intraperitoneal administration), and ISP-I in Example 1 was administered intraperitoneally 6 times at the doses of 0.1 mg/kg/day from the next day of immunization. Eight days after immunization, the spleen was resected to prepare effector cells, with which the ^51 Cr release test was carried out as in Experimental Example 3, using EL4 cells as the target cells to measure the cytotoxic activity.
# [4] = tested on: interleukin 2 receptor (IL-2R, Tac) expression in PHA-stimulated mouse spleen cells; assay: suppression of induction of IL-2R (Tac) expression in PHA-stimulated mouse spleen cells; type: cell-based
# Method: as §1, §2, §3
# [5] = tested on: interleukin 6 (IL6) response of mouse spleen cells; assay: suppression of interleukin 6 (IL6) response of mouse spleen cells (plaque assay); type: cell-based
# Method: The spleen was resected from 8-week-old male BALB/c mice, and single cell suspension in the serum-free RPMI1640 culture medium was prepared, and thereafter cell pellets were obtained by centrifugation (1000 rpm, 5 minutes) of the suspension. Then a mixture of 9 parts of a 0.16 M ammonium chloride solution and 1 part of a 0.17 M Tris solution (pH 7.65) was added to lyse red blood cells, and the suspension was washed three times with the serum-free RPMI1640 culture medium. The obtained cells were suspended to the concentration of 5×10^6 cells/ml in the RPMI1640 culture medium supplemented with 20% FCS, 5×10^-5 M 2-mercaptoethanol, 2×10^-3 M L glutamine, 1×10^-3 sodium pyruvate and 25% of the supernatant of the culture of T24 human bladder carcinoma cell line as a source of interluekin 6. One hundred μl of this cell suspension and 100 μl of the test substance were mixed in each well of 96-well microculture plates, and cultured at 37° C. in an atmosphere of 5% carbon dioxide for 72 hours. After termination of the culture, 50 μl of the cell suspension was collected from each well. Three hundred μl of the RPMI1640 culture medium supplemented with 0.7% agarose gel, 20 μl of physiological saline containing 40% protein A-bound sheep red blood cells and 20 μl of 300-fold dilution of anti-mouse IgG anti-serum diluted in physiological saline were mixed in a test tube, and extended uniformly on Rohduck plates (Falcon Co. 1034). After gel formation by keeping still at room temperature for a few minutes, the plates were cultured at 37° C. in an atmosphere of 5% carbon dioxide for about 4 hours.
# Three hundred μl of a 40-fold dilution of guinea pig complement in the serum-free RPMI1640 culture medium was added to each plate, which was then incubated for further 2 hours. The number of plaques formed was counted under stereoscopic microscope.
# SD in the Table means standard deviation. The percent suppression (%) was calculated by the following formula. [formula]
smiles,measurement,setting,value
CCCCCCC(=O)CCCCCC/C=C/CC(O)C(O)C(N)(CO)C(=O)O (centres unmarked) [Example 1],IL-2R positive cells,[1]; 0.001 μg/ml,22.4%
same,IL-2R positive cells,[1]; 0.01 μg/ml,17.6%
same,IL-2R positive cells,[1]; 0.1 μg/ml,13.1%
same,IL-2R positive cells,[1]; 1 μg/ml,11.4%
same,inhibition at 0.001 µg/mL,"[1]; Mus musculus, 24 h, 0.001 μg/ml",8.2%
same,inhibition at 0.01 µg/mL,"[1]; Mus musculus, 24 h, 0.01 μg/ml",27.9%
same,inhibition at 0.1 µg/mL,"[1]; Mus musculus, 24 h, 0.1 μg/ml",44.3%
same,inhibition at 1 µg/mL,"[1]; Mus musculus, 24 h, 1 μg/ml",53.3%
same,inhibition at 0.2 µg/mL,"[2]; Mus musculus, Thymocyte, 72 h, 0.2 μg/ml",83.9%
same,inhibition at 2 µg/mL,"[2]; Mus musculus, Thymocyte, 72 h, 2 μg/ml",91.8%
same,3H-thymidine uptake,[2]; 0.2 μg/ml,4646 ± 826 cpm ± SD
same,3H-thymidine uptake,[2]; 2 μg/ml,3973 ± 39 cpm ± SD
same,Amount of 51Cr release,[3]; effector:target 25:1,1046 cpm
same,Cytotoxic activity,[3]; effector:target 25:1,5%
same,Amount of 51Cr release,[3]; effector:target 50:1,1258 cpm
same,Cytotoxic activity,[3]; effector:target 50:1,8%
same,Amount of 51Cr release,[3]; effector:target 100:1,1543 cpm
same,Cytotoxic activity,[3]; effector:target 100:1,13%
same,IL-2R positive cells,[4]; 0.1 μg/ml,36.6%
same,IL-2R positive cells,[4]; 1 μg/ml,26.6%
same,IL-2R positive cells,[4]; 10 μg/ml,13.4%
same,inhibition at 0.1 µg/mL,"[4]; Mus musculus, 24 h, 0.1 μg/ml",20.8%
same,inhibition at 1 µg/mL,"[4]; Mus musculus, 24 h, 1 μg/ml",42.4%
same,inhibition at 10 µg/mL,"[4]; Mus musculus, 24 h, 10 μg/ml",71%
same,Number of plaque,[5]; 0.002 μg/ml,130 ± 4 plaque/1 × 10^6 cells ± SD
same,Number of plaque,[5]; 0.02 μg/ml,108 ± 10 plaque/1 × 10^6 cells ± SD
same,Number of plaque,[5]; 0.2 μg/ml,78 ± 6 plaque/1 × 10^6 cells ± SD
same,Number of plaque,[5]; 2 μg/ml,60 ± 8 plaque/1 × 10^6 cells ± SD
same,inhibition at 0.002 µg/mL,"[5]; Mus musculus, 72 h, 0.002 μg/ml",39.2%
same,inhibition at 0.02 µg/mL,"[5]; Mus musculus, 72 h, 0.02 μg/ml",50.5%
same,inhibition at 0.2 µg/mL,"[5]; Mus musculus, 72 h, 0.2 μg/ml",66%
same,inhibition at 2 µg/mL,"[5]; Mus musculus, 72 h, 2 μg/ml",75.3%
